# Columns and labels:
# [1] = target: T1, mouse AHR (Ah^b-1 allele) (Mus musculus, UniProt P30561); format: binding
# T1 sequence (P30561 10-848): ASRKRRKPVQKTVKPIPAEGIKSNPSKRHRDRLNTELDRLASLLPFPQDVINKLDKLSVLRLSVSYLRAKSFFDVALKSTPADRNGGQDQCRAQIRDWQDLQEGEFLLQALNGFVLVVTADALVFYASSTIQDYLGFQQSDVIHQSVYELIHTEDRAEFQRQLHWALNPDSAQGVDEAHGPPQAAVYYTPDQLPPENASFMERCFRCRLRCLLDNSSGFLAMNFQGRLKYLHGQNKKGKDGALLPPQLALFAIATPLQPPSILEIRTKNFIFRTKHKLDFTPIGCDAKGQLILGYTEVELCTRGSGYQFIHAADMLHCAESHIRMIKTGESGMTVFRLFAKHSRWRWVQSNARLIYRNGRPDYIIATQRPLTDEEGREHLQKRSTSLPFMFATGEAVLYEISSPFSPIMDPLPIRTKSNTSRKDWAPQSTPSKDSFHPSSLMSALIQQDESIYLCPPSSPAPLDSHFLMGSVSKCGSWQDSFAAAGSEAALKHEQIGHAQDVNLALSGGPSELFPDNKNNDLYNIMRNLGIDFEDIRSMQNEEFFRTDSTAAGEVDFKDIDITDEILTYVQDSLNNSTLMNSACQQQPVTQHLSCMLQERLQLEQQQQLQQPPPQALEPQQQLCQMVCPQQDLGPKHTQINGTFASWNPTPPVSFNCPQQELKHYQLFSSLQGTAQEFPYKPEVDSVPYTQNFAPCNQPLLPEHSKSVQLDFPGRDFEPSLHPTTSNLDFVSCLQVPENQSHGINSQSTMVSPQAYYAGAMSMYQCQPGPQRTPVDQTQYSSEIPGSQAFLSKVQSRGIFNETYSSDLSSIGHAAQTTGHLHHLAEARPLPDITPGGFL
# beluga AHR [2] = target: T2, beluga AHR (Delphinapterus leucas, UniProt Q95LD9); format: binding
# T2 sequence (Q95LD9 11-845): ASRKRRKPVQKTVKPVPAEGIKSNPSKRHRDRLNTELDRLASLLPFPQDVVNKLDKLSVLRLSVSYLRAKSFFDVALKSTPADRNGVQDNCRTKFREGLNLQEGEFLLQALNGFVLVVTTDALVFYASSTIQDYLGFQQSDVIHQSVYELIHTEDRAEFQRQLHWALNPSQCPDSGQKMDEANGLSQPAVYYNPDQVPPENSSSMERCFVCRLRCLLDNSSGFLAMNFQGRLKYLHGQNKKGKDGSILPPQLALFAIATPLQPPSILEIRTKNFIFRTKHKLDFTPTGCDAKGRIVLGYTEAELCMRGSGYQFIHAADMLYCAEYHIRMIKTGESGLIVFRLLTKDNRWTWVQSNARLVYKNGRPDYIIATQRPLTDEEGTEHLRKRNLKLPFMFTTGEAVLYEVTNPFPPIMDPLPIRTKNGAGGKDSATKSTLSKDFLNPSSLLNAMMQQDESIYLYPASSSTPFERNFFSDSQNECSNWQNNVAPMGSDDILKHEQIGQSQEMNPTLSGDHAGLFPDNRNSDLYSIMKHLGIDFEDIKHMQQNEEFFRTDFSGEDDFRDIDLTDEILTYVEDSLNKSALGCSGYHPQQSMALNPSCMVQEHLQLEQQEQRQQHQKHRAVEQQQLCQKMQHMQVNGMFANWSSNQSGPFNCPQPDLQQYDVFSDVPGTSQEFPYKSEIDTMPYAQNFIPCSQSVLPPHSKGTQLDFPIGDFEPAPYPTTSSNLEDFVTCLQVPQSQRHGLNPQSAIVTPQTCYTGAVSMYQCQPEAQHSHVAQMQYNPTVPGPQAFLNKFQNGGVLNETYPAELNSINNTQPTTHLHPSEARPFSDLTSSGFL
# [3] = test system: mouse AHR (Ah^b-1 allele); format: binding; conditions: mouse REP vs rat REP
# beluga AHR [4] = conditions: determined by saturation binding; ref Jensen and Hahn 2001; cited from earlier work
structure (smiles),measurement,setting,value
"Clc1cc2c(cc1Cl)Oc1cc(Cl)c(Cl)cc1O2 [TCDD, 2,3,7,8-tetrachlorodibenzo-p-dioxin, reference compound]",Ki,[1],360 pM
same,IC50,beluga AHR [2],470 pM
same,Ki,beluga AHR [2],100 pM
Clc1ccc(-c2cc(Cl)c(Cl)cc2Cl)cc1Cl [PCB-118],fold lower REP compared to rat,[3],10 fold
same,fold lower REP compared to rat,beluga AHR [2]; beluga REP vs rat REP,15 fold
"[3H]c1c(Cl)c(Cl)cc2c1Oc1cc(Cl)c(Cl)c([3H])c1O2 [[^3H]TCDD, 2,3,7,8-Tetrachloro[1,6-^3H]dibenzo-p-dioxin]","binding affinity for beluga AHR vs mouse AHR, fold higher",beluga AHR [4],~ 2 fold
Clc1ccc(-c2ccc(Cl)c(Cl)c2Cl)c(Cl)c1Cl [PCB-128],inhibition of [3H]TCDD binding reached by the curves,"[1]; mouse AHR, maximum reached by competition curves",80%
same,inhibition of [3H]TCDD binding reached by the curves,"beluga AHR [2]; beluga AHR, maximum reached by competition curves",90%
Clc1ccc(-c2cc(Cl)c(Cl)c(Cl)c2)cc1 [PCB-81],fold higher binding REP compared to rat,[3],28 fold
same,fold higher binding REP compared to rat,beluga AHR [2]; beluga REP vs rat REP,14 fold

# — article PMC3175004 (Aquatic toxicology (Amsterdam, Netherlands), 2010)
